Experimental data taken from US20220400680A1, “USE OF ACYLCYANAMIDES OR SALTS THEREOF FOR REGULATING PLANT GROWTH” (Alzchem Trostberg GmbH, priority 2019, published 2022).

Assays:
[1] = tested on: Table apple, type Boiken apple (C1); assay: Greenhouse test, cut apple branches C1 dipped in test solution, bud development stage; format: in vivo, Malus domestica; design: key to Bud development stage, apple branches C1: Stage 0: Buds unchanged; Stage 1: Buds slightly swollen, first green tips visible; Stage 2: strongly swollen, green buds; Stage 3: Buds before breaking open, leaf or flower root already visible; Stage 4: Flower buds fully developed, but still closed, white petals already visible. In the case of the grapevine, stage 4 was the unfolding of the first leaves; Stage 5: Flowers fully open or, in the case of grapevine, unfolding of the flower roots (“Gescheine”) on the fully leafed sprouts
Procedure: Greenhouse tests were conducted using cut fruit tree branches placed in water jars and maintained under controlled conditions with temperature regulation at approximately 22° C. and natural lighting. C1: Table Apple, Type Boiken Apple Table apple: Malus domestica type Boiken first described in 1828 in Bremen after Deichvogt Boiken. Apple type for rough locations and for almost every soil suitable scattered fruit type, whereby heavy soils and not too warm locations are required. Tree growth initially strong, later medium. Older crowns become broadly spherical and are loosely branched. Flowering starting medium-late and long lasting, petals large with little pink. Yield starting late (October) and irregular; with long shelf life and pressure resistance. […] The test solutions were prepared directly, i.e. without intermediate preparation of a concentrate. For each of the test substances A-1 to A-13, an aqueous solution of 0.15 mol of the test substance and 0.15 g BreakThru® OE-446 was prepared and filled up to a total of 500 g with water. Of bis-cyanamides A-14 and A-15, 0.075 mol each was filled up to 500 g in an analogous manner. These test solutions (in combination with the above 4 species/types Cx) were given the test numbers Cx-A1 to Cx-A15. […] This was done with the following evaluation scale: • Stage 0: […] Flower buds fully developed, but still closed, white petals already visible. […] Flowers fully open or, in the case of grapevine, unfolding of the flower roots (“[…]”) on the fully leafed sprouts.

[2] = tested on: Table apple, type Zabergäu-Renette (C2); assay: Greenhouse test, cut apple branches C2 dipped in test solution, bud development stage; format: in vivo, Malus domestica; design: key to Bud development stage, apple branches C2: Stage 0: Buds unchanged; Stage 1: Buds slightly swollen, first green tips visible; Stage 2: strongly swollen, green buds; Stage 3: Buds before breaking open, leaf or flower root already visible; Stage 4: Flower buds fully developed, but still closed, white petals already visible. In the case of the grapevine, stage 4 was the unfolding of the first leaves; Stage 5: Flowers fully open or, in the case of grapevine, unfolding of the flower roots (“Gescheine”) on the fully leafed sprouts; details: for Good to very good dormancy-breaking effect, apple C2: stage 4 reached or exceeded after 27 days vs negative control; for Dormancy-breaking effect according to the definition, apple C2: stage 4 reached or exceeded after 36 days vs negative control
Procedure: Greenhouse tests were conducted using cut fruit tree branches placed in water jars and maintained under controlled conditions with temperature regulation at approximately 22° C. and natural lighting. C2: Table Apple, Type […] Table apple: Malus domestica type […] first developed in 1885 as a chance seedling in Hausen a.d. Zaber/Baden-Württemberg and initially grown as 'Hausener Graue […]'. No defined storage type; requires heavy soils (loam). Tree growth initially strong with oblique upright leading branches, later medium with flat branches. Crown broad and flat-spherical with flat fruiting wood. Leaves large, broad oval and with clearly separated tip. Triploid type with late and long-lasting flowering. Yield starting early, medium high and somewhat alternate. […] The test solutions were prepared directly, i.e. without intermediate preparation of a concentrate. For each of the test substances A-1 to A-13, an aqueous solution of 0.15 mol of the test substance and 0.15 g BreakThru® OE-446 was prepared and filled up to a total of 500 g with water. Of bis-cyanamides A-14 and A-15, 0.075 mol each was filled up to 500 g in an analogous manner. These test solutions (in combination with the above 4 species/types Cx) were given the test numbers Cx-A1 to Cx-A15. […] This was done with the following evaluation scale: • Stage 0: […] Flower buds fully developed, but still closed, white petals already visible. […] Flowers fully open or, in the case of grapevine, unfolding of the flower roots (“[…]”) on the fully leafed sprouts.

[3] = tested on: Table cherry, type Burlat (C3); assay: Greenhouse test, cut cherry branches C3 dipped in test solution, bud development stage; format: in vivo, Prunus avium; design: key to Bud development stage, cherry branches C3: Stage 0: Buds unchanged; Stage 1: Buds slightly swollen, first green tips visible; Stage 2: strongly swollen, green buds; Stage 3: Buds before breaking open, leaf or flower root already visible; Stage 4: Flower buds fully developed, but still closed, white petals already visible. In the case of the grapevine, stage 4 was the unfolding of the first leaves; Stage 5: Flowers fully open or, in the case of grapevine, unfolding of the flower roots (“Gescheine”) on the fully leafed sprouts
Procedure: Greenhouse tests were conducted using cut fruit tree branches placed in water jars and maintained under controlled conditions with temperature regulation at approximately 22° C. and natural lighting. C3: Table Cherry, Type Burlat Table cherry: Prunus avium type Bigarreau Burlat or […] is a strong-growing somewhat sparse growing sweet cherry tree with horizontal side sprouts. The type has been known since 1930 and is one of the most important types in commercial cultivation. […] Medium but regular yields identify the type as a secondary type for early and dry areas. […] The test solutions were prepared directly, i.e. without intermediate preparation of a concentrate. For each of the test substances A-1 to A-13, an aqueous solution of 0.15 mol of the test substance and 0.15 g BreakThru® OE-446 was prepared and filled up to a total of 500 g with water. Of bis-cyanamides A-14 and A-15, 0.075 mol each was filled up to 500 g in an analogous manner. These test solutions (in combination with the above 4 species/types Cx) were given the test numbers Cx-A1 to Cx-A15. […] This was done with the following evaluation scale: • Stage 0: […] Flower buds fully developed, but still closed, white petals already visible. […] Flowers fully open or, in the case of grapevine, unfolding of the flower roots (“[…]”) on the fully leafed sprouts.

[4] = tested on: Grape, type Pinot Noir (C4); assay: Greenhouse test, cut wine sprouts C4 dipped in test solution, bud development stage; format: in vivo, Vitis vinifera subsp. vinifera; design: key to Bud development stage, wine sprouts C4: Stage 0: Buds unchanged; Stage 1: Buds slightly swollen, first green tips visible; Stage 2: strongly swollen, green buds; Stage 3: Buds before breaking open, leaf or flower root already visible; Stage 4: Flower buds fully developed, but still closed, white petals already visible. In the case of the grapevine, stage 4 was the unfolding of the first leaves; Stage 5: Flowers fully open or, in the case of grapevine, unfolding of the flower roots (“Gescheine”) on the fully leafed sprouts; details: for Dormancy-breaking effect according to the definition, wine C4: stage 4 reached or exceeded after 36 days vs negative control
Procedure: Greenhouse tests were conducted using cut fruit tree branches placed in water jars and maintained under controlled conditions with temperature regulation at approximately 22° C. and natural lighting. C4: Grape, Type Pinot Noir Grape: Vitis vinifera subsp. vinifera type Pinot Noir is an important and high quality red wine type that has existed for possibly 2000 years. It is cultivated all over the world because the type produces high quality red wines and has sufficient winter frost resistance. The type requires early and good areas with deep, warm, medium-heavy and fertile soils with good water supply. Pinot Noir produces regular, medium-high to high yields. However, there are a large number of clones that differ in yield, berry size and looseness. […] The test solutions were prepared directly, i.e. without intermediate preparation of a concentrate. For each of the test substances A-1 to A-13, an aqueous solution of 0.15 mol of the test substance and 0.15 g BreakThru® OE-446 was prepared and filled up to a total of 500 g with water. Of bis-cyanamides A-14 and A-15, 0.075 mol each was filled up to 500 g in an analogous manner. These test solutions (in combination with the above 4 species/types Cx) were given the test numbers Cx-A1 to Cx-A15. […] This was done with the following evaluation scale: • Stage 0: […] Flower buds fully developed, but still closed, white petals already visible. […] Flowers fully open or, in the case of grapevine, unfolding of the flower roots (“[…]”) on the fully leafed sprouts.

[5] = T1 (14 d), 0.15 mol (A-14, A-15: 0.075 mol) per 500 g solution

N#CNC(=O)CCCCC(=O)NC#N.[Na].[Na] [Example A-15, Disodium-(5-(cyano-amidocarbonyl)-pentanoyl-cyanamide)]
Bud development stage, apple branches C1 [1, 5]: 0 | Bud development stage, apple branches C1 ([1]; T2 (16 d)): 0 | Bud development stage, apple branches C1 ([1]; T3 (21 d)): 1 | Bud development stage, apple branches C1 ([1]; T4 (27 d)): 2 | Bud development stage, apple branches C1 ([1]; T5 (36 d)): 3 | Bud development stage, apple branches C1 ([1]; T6 (56 d)): 4 | Bud development stage, apple branches C2 [2, 5]: 0 | Bud development stage, apple branches C2 ([2]; T2 (16 d)): 0 | Bud development stage, apple branches C2 ([2]; T3 (21 d)): 1 | Bud development stage, apple branches C2 ([2]; T4 (27 d)): 5 | Bud development stage, apple branches C2 ([2]; T5 (36 d)): 5 | Bud development stage, apple branches C2 ([2]; T6 (56 d)): 5 | Good to very good dormancy-breaking effect, apple C2 [2]: good to very good dormancy-breaking effect | Dormancy-breaking effect according to the definition, apple C2 [2]: dormancy-breaking effect | Bud development stage, cherry branches C3 [3, 5]: 0 | Bud development stage, cherry branches C3 ([3]; T2 (16 d)): 1 | Bud development stage, cherry branches C3 ([3]; T3 (21 d)): 1 | Bud development stage, cherry branches C3 ([3]; T4 (27 d)): 1 | Bud development stage, cherry branches C3 ([3]; T5 (36 d)): 2 | Bud development stage, cherry branches C3 ([3]; T6 (56 d)): 4 | Bud development stage, wine sprouts C4 [4, 5]: 0 | Bud development stage, wine sprouts C4 ([4]; T2 (16 d)): 0 | Bud development stage, wine sprouts C4 ([4]; T3 (21 d)): 0 | Bud development stage, wine sprouts C4 ([4]; T4 (27 d)): 1 | Bud development stage, wine sprouts C4 ([4]; T5 (36 d)): 4 | Bud development stage, wine sprouts C4 ([4]; T6 (56 d)): 5 | Dormancy-breaking effect according to the definition, wine C4 [4]: dormancy-breaking effect

CCCCCC(=O)NC#N.[Na] [Example A-9, Sodium hexanoyl cyanamide]
Bud development stage, apple branches C1 [1, 5]: 0 | Bud development stage, apple branches C1 ([1]; T2 (16 d)): 1 | Bud development stage, apple branches C1 ([1]; T3 (21 d)): 1 | Bud development stage, apple branches C1 ([1]; T4 (27 d)): 2 | Bud development stage, apple branches C1 ([1]; T5 (36 d)): 2 | Bud development stage, apple branches C1 ([1]; T6 (56 d)): 3 | Bud development stage, apple branches C2 [2, 5]: 0 | Bud development stage, apple branches C2 ([2]; T2 (16 d)): 1 | Bud development stage, apple branches C2 ([2]; T3 (21 d)): 4 | Bud development stage, apple branches C2 ([2]; T4 (27 d)): 5 | Bud development stage, apple branches C2 ([2]; T5 (36 d)): 5 | Bud development stage, apple branches C2 ([2]; T6 (56 d)): 5 | Good to very good dormancy-breaking effect, apple C2 [2]: good to very good dormancy-breaking effect | Dormancy-breaking effect according to the definition, apple C2 [2]: dormancy-breaking effect | Bud development stage, cherry branches C3 [3, 5]: 0 | Bud development stage, cherry branches C3 ([3]; T2 (16 d)): 1 | Bud development stage, cherry branches C3 ([3]; T3 (21 d)): 2 | Bud development stage, cherry branches C3 ([3]; T4 (27 d)): 3 | Bud development stage, cherry branches C3 ([3]; T5 (36 d)): 5 | Bud development stage, cherry branches C3 ([3]; T6 (56 d)): 5 | Bud development stage, wine sprouts C4 [4, 5]: 0 | Bud development stage, wine sprouts C4 ([4]; T2 (16 d)): 0 | Bud development stage, wine sprouts C4 ([4]; T3 (21 d)): 0 | Bud development stage, wine sprouts C4 ([4]; T4 (27 d)): 2 | Bud development stage, wine sprouts C4 ([4]; T5 (36 d)): 5 | Bud development stage, wine sprouts C4 ([4]; T6 (56 d)): 5 | Dormancy-breaking effect according to the definition, wine C4 [4]: dormancy-breaking effect

N#CNC(=O)Cc1ccccc1.[Na] [Example A-12, Sodium phenylacetyl cyanamide]
Bud development stage, apple branches C1 [1, 5]: 0 | Bud development stage, apple branches C1 ([1]; T2 (16 d)): 1 | Bud development stage, apple branches C1 ([1]; T3 (21 d)): 2 | Bud development stage, apple branches C1 ([1]; T4 (27 d)): 2 | Bud development stage, apple branches C1 ([1]; T5 (36 d)): 5 | Bud development stage, apple branches C1 ([1]; T6 (56 d)): 5 | Dormancy-breaking effect according to the definition, apple C1 ([1]; stage 4 reached or exceeded after 36 days vs negative control): dormancy-breaking effect | Bud development stage, apple branches C2 [2, 5]: 0 | Bud development stage, apple branches C2 ([2]; T2 (16 d)): 0 | Bud development stage, apple branches C2 ([2]; T3 (21 d)): 3 | Bud development stage, apple branches C2 ([2]; T4 (27 d)): 3 | Bud development stage, apple branches C2 ([2]; T5 (36 d)): 4 | Bud development stage, apple branches C2 ([2]; T6 (56 d)): 5 | Dormancy-breaking effect according to the definition, apple C2 [2]: dormancy-breaking effect | Bud development stage, cherry branches C3 [3, 5]: 0 | Bud development stage, cherry branches C3 ([3]; T2 (16 d)): 1 | Bud development stage, cherry branches C3 ([3]; T3 (21 d)): 2 | Bud development stage, cherry branches C3 ([3]; T4 (27 d)): 5 | Bud development stage, cherry branches C3 ([3]; T5 (36 d)): 5 | Bud development stage, cherry branches C3 ([3]; T6 (56 d)): 5 | Dormancy-breaking effect according to the definition, cherry C3 ([3]; stage 4 reached or exceeded after 27 days vs negative control): dormancy-breaking effect | Bud development stage, wine sprouts C4 [4, 5]: 0 | Bud development stage, wine sprouts C4 ([4]; T2 (16 d)): 0 | Bud development stage, wine sprouts C4 ([4]; T3 (21 d)): 1 | Bud development stage, wine sprouts C4 ([4]; T4 (27 d)): 3 | Bud development stage, wine sprouts C4 ([4]; T5 (36 d)): 4 | Bud development stage, wine sprouts C4 ([4]; T6 (56 d)): 4 | Dormancy-breaking effect according to the definition, wine C4 [4]: dormancy-breaking effect
